Measurements taken from ChEMBL document CHEMBL5108001, “Multivalent glucosidase inhibitors based on perylene bisimide and iminosugar conjugates” (Eur J Med Chem, 2022).
One block for each compound: values may come before it.

Assays:
[1] = test system: Mus musculus; experiment: Hypoglycemic activity in C57BL/6J mouse assessed as reduction in postprandial blood glucose level at 0.5 mg/kg measured after 15 mins by maltose tolerance test; format: functional; details: 0.25 h
[2] = test system: Mus musculus; experiment: Hypoglycemic activity in C57BL/6J mouse assessed as reduction in postprandial blood glucose level at 2 mg/kg measured after 30 mins by maltose tolerance test; format: functional; details: 0.5 h
[3] = test system: Mus musculus; experiment: Hypoglycemic activity in C57BL/6J mouse assessed as reduction in postprandial blood glucose level at 2 mg/kg measured after 15 mins by maltose tolerance test; format: functional; details: 0.25 h
[4] = Inhibition of Aspergillus niger alpha-glucosidase by Lineweaver-Burk plot analysis
[5] = test system: Mus musculus; experiment: Hypoglycemic activity in C57BL/6J mouse assessed as reduction in postprandial blood glucose level at 0.5 mg/kg measured after 30 mins by maltose tolerance test; format: functional; details: 0.5 h
[6] = Inhibition of rice alpha-glucosidase by Lineweaver-Burk plot analysis; set-up: species or system Oryza sativa
[7] = test system: Mus musculus; experiment: Hypoglycemic activity in C57BL/6J mouse assessed as reduction in postprandial blood glucose level at 1 mg/kg measured after 30 mins by maltose tolerance test; format: functional; details: 0.5 h
[8] = test system: Mus musculus; experiment: Hypoglycemic activity in C57BL/6J mouse assessed as postprandial blood glucose level at 2 mg/kg measured after 30 mins by maltose tolerance test (reference value: 368.49 +/-31.28 mg/dl); format: functional; details: 0.5 h
[9] = test system: Mus musculus; experiment: Hypoglycemic activity in C57BL/6J mouse assessed as reduction in postprandial blood glucose level at 1 mg/kg measured after 15 mins by maltose tolerance test; format: functional; details: 0.25 h
[10] = test system: Mus musculus; experiment: Hypoglycemic activity in C57BL/6J mouse assessed as postprandial blood glucose level at 1 mg/kg measured after 30 mins by maltose tolerance test (reference value: 368.49 +/-31.28 mg/dl); format: functional; details: 0.5 h
[11] = test system: Mus musculus; experiment: Hypoglycemic activity in C57BL/6J mouse assessed as postprandial blood glucose level at 0.5 mg/kg measured after 30 mins by maltose tolerance test (reference value: 368.49 +/-31.28 mg/dl); format: functional
[12] = Toxicity in C57BL/6J mouse assessed as change in GLU level at 2 mg/kg administered for 7 days; format: organism-based; details: in vivo, 168 h, time 7 day
[13] = Inhibition of alpha-glucosidase in Kunming mouse using p-nitrophenyl-alpha-glycopyranoside as substrate by Lineweaver-Burk plot analysis
[14] = Toxicity in C57BL/6J mouse assessed as change in body weight at 2 mg/kg administered for 7 days; format: organism-based; details: in vivo, 168 h, time 7 day
[15] = Renal toxicity in C57BL/6J mouse assessed as blood urea level at 2 mg/kg administered for 7 days; format: organism-based; details: in vivo, 168 h, time 7 day
[16] = test system: Mus musculus; experiment: Hypoglycemic activity in C57BL/6J mouse assessed as reduction in postprandial blood glucose level per DNJ nit at 0.5 to 2 mg/kg measured after 15 mins by maltose tolerance test relative to Miglitol; format: functional; details: dose 0.5-2 mg/kg, 0.25 h
[17] = Toxicity in C57BL/6J mouse assessed as change in blood triglyceride level at 2 mg/kg administered for 7 days; format: organism-based; details: in vivo, 168 h, time 7 day
[18] = Toxicity in C57BL/6J mouse assessed as heart pathological morphological changes at 2 mg/kg administered for 7 days by hematoxylin-eosin staining based analysis; format: organism-based; details: in vivo, 168 h, time 7 day
[19] = test system: Mus musculus; experiment: Hypoglycemic activity in C57BL/6J mouse assessed as reduction in postprandial blood glucose level per DNJ unit at 0.5 to 1 mg/kg measured after 30 mins by maltose tolerance test relative to Miglitol; format: functional; details: dose 0.5-1 mg/kg
[20] = Toxicity in C57BL/6J mouse assessed as kidneys pathological morphological changes at 2 mg/kg administered for 7 days by hematoxylin-eosin staining based analysis; format: organism-based; details: in vivo, 168 h, time 7 day
[21] = target: T1, Alpha-mannosidase (Canavalia ensiformis, UniProt C0HJB3); experiment: Inhibition of jack bean alpha-mannosidase
T1 sequence (C0HJB3 whole entry): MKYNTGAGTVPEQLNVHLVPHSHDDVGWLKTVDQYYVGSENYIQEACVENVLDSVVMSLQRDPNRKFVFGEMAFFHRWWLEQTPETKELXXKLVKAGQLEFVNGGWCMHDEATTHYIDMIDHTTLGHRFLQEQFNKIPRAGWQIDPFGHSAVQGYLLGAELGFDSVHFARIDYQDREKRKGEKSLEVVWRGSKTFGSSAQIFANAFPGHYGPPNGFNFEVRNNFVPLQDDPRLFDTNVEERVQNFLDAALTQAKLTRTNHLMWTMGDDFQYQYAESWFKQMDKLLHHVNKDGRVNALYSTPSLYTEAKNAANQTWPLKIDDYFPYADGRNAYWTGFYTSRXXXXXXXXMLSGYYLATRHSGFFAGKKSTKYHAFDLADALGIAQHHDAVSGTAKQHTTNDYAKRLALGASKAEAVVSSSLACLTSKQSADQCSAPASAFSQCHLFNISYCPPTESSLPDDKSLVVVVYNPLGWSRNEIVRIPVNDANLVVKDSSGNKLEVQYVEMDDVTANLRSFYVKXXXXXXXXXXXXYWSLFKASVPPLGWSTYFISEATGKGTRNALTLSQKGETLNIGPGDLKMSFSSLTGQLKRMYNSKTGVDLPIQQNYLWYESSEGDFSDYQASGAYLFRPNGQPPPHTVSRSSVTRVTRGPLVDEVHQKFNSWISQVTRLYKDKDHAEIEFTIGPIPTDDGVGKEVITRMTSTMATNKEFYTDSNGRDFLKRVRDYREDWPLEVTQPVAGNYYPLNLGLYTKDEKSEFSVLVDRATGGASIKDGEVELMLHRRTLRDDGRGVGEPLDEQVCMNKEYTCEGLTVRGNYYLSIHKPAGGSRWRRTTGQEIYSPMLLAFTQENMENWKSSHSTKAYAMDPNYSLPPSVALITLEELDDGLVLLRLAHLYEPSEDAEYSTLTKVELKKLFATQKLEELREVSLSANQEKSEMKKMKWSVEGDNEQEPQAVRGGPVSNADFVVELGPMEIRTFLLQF

[22] = target: T2, Alpha-mannosidase (Canavalia ensiformis) (UniProt C0HJB3); experiment: Potency index, ratio of Miglitol Ki to test compound Ki for inhibition of jack bean alpha-mannosidase measured per DNJ unit
T2 sequence (whole entry): T1 sequence (C0HJB3 whole entry)

[23] = Toxicity in C57BL/6J mouse assessed as reduction in blood LDL level at 2 mg/kg administered for 7 days; format: organism-based; details: in vivo, 168 h, time 7 day
[24] = Toxicity in C57BL/6J mouse assessed as change in blood cholesterol level at 2 mg/kg administered for 7 days; format: organism-based; details: in vivo, 168 h, time 7 day
[25] = Toxicity in C57BL/6J mouse assessed as change in CK level at 2 mg/kg administered for 7 days; format: organism-based; details: in vivo, 168 h, time 7 day
[26] = Renal toxicity in C57BL/6J mouse assessed as blood uric acid level at 2 mg/kg administered for 7 days; format: organism-based; details: in vivo, 168 h, time 7 day
[27] = Toxicity in C57BL/6J mouse assessed as hepatic pathological changes by measuring hepatocytes distributed radially around the central veins at 2 mg/kg administered for 7 days by hematoxylin-eosin staining based analysis; format: organism-based; details: in vivo, 168 h, time 7 day
[28] = Hepatotoxicity in C57BL/6J mouse assessed as serum AST level at 2 mg/kg administered for 7 days (reference value: 221.38 +/-23.03 U/L); format: toxicity, organism-based; details: in vivo, 168 h, time 7 day
[29] = Toxicity in C57BL/6J mouse assessed as change in blood HDL level at 2 mg/kg administered for 7 days; format: organism-based; details: in vivo, 168 h, time 7 day
[30] = Toxicity in C57BL/6J mouse assessed as lungs pathological morphological changes at 2 mg/kg administered for 7 days by hematoxylin-eosin staining based analysis; format: organism-based; details: in vivo, 168 h, time 7 day
[31] = test system: Oryza sativa; experiment: Potency index, ratio of Miglitol Ki to test compound Ki for inhibition of rice alpha-glucosidase measured per DNJ unit
[32] = Toxicity in C57BL/6J mouse assessed as spleen pathological morphological changes at 2 mg/kg administered for 7 days by hematoxylin-eosin staining based analysis; format: organism-based; details: in vivo, 168 h, time 7 day
[33] = Cytotoxicity against human GES1 cells assessed as cell viability at 125 uM; format: toxicity, cell-based; details: read-out: Activity
[34] = Hepatotoxicity in C57BL/6J mouse assessed as serum ALT level at 2 mg/kg administered for 7 days (reference value: 70.49 +/-8.78 U/L); format: toxicity, organism-based; details: in vivo, 168 h, time 7 day
[35] = Renal toxicity in C57BL/6J mouse assessed as change in blood urea level at 2 mg/kg administered for 7 days; format: organism-based; details: in vivo, 168 h, time 7 day
[36] = Hepatotoxicity in C57BL/6J mouse assessed as change in serum ALP level at 2 mg/kg administered for 7 days; format: toxicity, organism-based; details: in vivo, 168 h, time 7 day
[37] = Renal toxicity in C57BL/6J mouse assessed as change in blood uric acid level at 2 mg/kg administered for 7 days; format: organism-based; details: in vivo, 168 h, time 7 day
[38] = Hepatotoxicity in C57BL/6J mouse assessed as change in serum AST level at 2 mg/kg administered for 7 days; format: toxicity, organism-based; details: in vivo, 168 h, time 7 day

Ki [4]: 20800 nM
Ki [6]: 180 nM
Compound: OCCN1C[C@H](O)[C@@H](O)[C@H](O)[C@H]1CO [MIGLITOL]
inhibition in vivo at 0.5 mg/kg [1]: 23.1%
inhibition in vivo at 2 mg/kg [2]: 41%
inhibition in vivo at 2 mg/kg [3]: 39.2%
inhibition in vivo at 0.5 mg/kg [5]: 22%
inhibition in vivo at 1 mg/kg [7]: 27.3%
Activity [8]: 233.28 mg/dL
inhibition in vivo at 1 mg/kg [9]: 30%
Activity [10]: 273.6 mg/dL
Activity [11]: 287.55 mg/dL

Ki [13]: 140 nM
Ki [21]: 80 nM
Ki [4]: 18900 nM
Ratio Ki [22]: 219
Ki [6]: 20 nM
Ratio Ki [31]: 1.5
Compound: O=C1c2cc(Oc3ccc(OCc4cn(CCCN5C[C@H](O)[C@@H](O)[C@H](O)[C@H]5CO)nn4)cc3)c3c4c(Oc5ccc(OCc6cn(CCCN7C[C@H](O)[C@@H](O)[C@H](O)[C@H]7CO)nn6)cc5)cc5c6c(cc(Oc7ccc(OCc8cn(CCCN9C[C@H](O)[C@@H](O)[C@H](O)[C@H]9CO)nn8)cc7)c(c7c(Oc8ccc(OCc9cn(CCCN%10C[C@H](O)[C@@H](O)[C@H](O)[C@H]%10CO)nn9)cc8)cc(c2c37)C(=O)N1Cc1cn(CCCN2C[C@H](O)[C@@H](O)[C@H](O)[C@H]2CO)nn1)c64)C(=O)N(Cc1cn(CCCN2C[C@H](O)[C@@H](O)[C@H](O)[C@H]2CO)nn1)C5=O
Activity [12]: Non-Toxic
Activity [14]: Non-Toxic
Activity [15]: 8.63 mmol/L
fold change (FC) [16]: 2.1
Activity [17]: Non-Toxic
Activity [18]: Non-Toxic
fold change (FC) [19]: 2.1
Activity [20]: Non-Toxic
inhibition in vivo at 0.5 mg/kg [1]: 24.7%
inhibition in vivo at 2 mg/kg [2]: 37.8%
inhibition in vivo at 2 mg/kg [3]: 40.4%
inhibition in vivo at 0.5 mg/kg [5]: 24.4%
Activity [23]: 0.3 mmol/L
Activity [24]: Non-Toxic
inhibition in vivo at 1 mg/kg [7]: 34.6%
Activity [25]: Non-Toxic
Activity [8]: 229.32 mg/dL
Activity [26]: 242.06 µmol/L
Activity [27]: Non-Toxic
Activity [28]: 269.71 U/L
inhibition in vivo at 1 mg/kg [9]: 37%
Activity [29]: Non-Toxic
Activity [30]: Non-Toxic
Activity [32]: Non-Toxic
Activity [10]: 243.36 mg/dL
viability at 125 µM [33]: 92%
Activity [34]: 59.14 U/L
Activity [11]: 279.6 mg/dL

Ki [13]: 310 nM
Ki [21]: 120 nM
Ki [4]: 8040 nM
Ratio Ki [22]: 175
Ki [6]: 10 nM
Ratio Ki [31]: 3.6
Compound: O=C1c2cc(Cl)c3c4c(Oc5ccc(OCc6cn(CCCN7C[C@H](O)[C@@H](O)[C@H](O)[C@H]7CO)nn6)cc5)cc5c6c(cc(Oc7ccc(OCc8cn(CCCN9C[C@H](O)[C@@H](O)[C@H](O)[C@H]9CO)nn8)cc7)c(c7c(Oc8ccc(OCc9cn(CCCN%10C[C@H](O)[C@@H](O)[C@H](O)[C@H]%10CO)nn9)cc8)cc(c2c37)C(=O)N1Cc1cn(CCCN2C[C@H](O)[C@@H](O)[C@H](O)[C@H]2CO)nn1)c64)C(=O)N(Cc1cn(CCCN2C[C@H](O)[C@@H](O)[C@H](O)[C@H]2CO)nn1)C5=O
Activity [12]: Non-Toxic
Activity [14]: Non-Toxic
fold change (FC) [16]: 1.6
Activity [17]: Non-Toxic
Activity [18]: Non-Toxic
fold change (FC) [19]: 1.5
Activity [20]: Non-Toxic
inhibition in vivo at 0.5 mg/kg [1]: 18%
inhibition in vivo at 2 mg/kg [3]: 31.9%
Activity [35]: Non-Toxic
inhibition in vivo at 0.5 mg/kg [5]: 12.3%
Activity [23]: 0.24 mmol/L
Activity [36]: Non-Toxic
Activity [24]: Non-Toxic
Activity [37]: Non-Toxic
Activity [38]: Non-Toxic
inhibition in vivo at 1 mg/kg [7]: 23.8%
Activity [25]: Non-Toxic
Activity [8]: 287.49 mg/dL
Activity [27]: Non-Toxic
inhibition in vivo at 1 mg/kg [9]: 26.9%
Activity [29]: Non-Toxic
Activity [30]: Non-Toxic
Activity [32]: Non-Toxic
Activity [10]: 304.2 mg/dL
viability at 125 µM [33]: 92%
Activity [11]: 323.49 mg/dL
